Organism: Rattus norvegicus
Assay: DrugMatrix - Regimen: Daily Repeat
Format: toxicity, organism-based, Sprague-Dawley
Set-up: regimen Daily Repeat, gender Male, age 6-8 weeks
Conditions: in vivo, po, route oral GAVAGE, vehicle 100 % WATER; for ABSOLUTE BASOPHIL / ABSOLUTE EOSINOPHIL / ABSOLUTE LYMPHOCYTE / ABSOLUTE MONOCYTE / ABSOLUTE SEGMENTED NEUTROPHIL / BASOPHIL / EOSINOPHIL / ERYTHROCYTE COUNT / HEMATOCRIT / HEMOGLOBIN / LEUKOCYTE COUNT / LYMPHOCYTE / MEAN CORPUSCULAR HEMOGLOBIN / MEAN CORPUSCULAR HEMOGLOBIN CONCENTRATION / MEAN CORPUSCULAR VOLUME / MONOCYTE / NEUTROPHIL / NUCLEATED RED BLOOD CELLS / PLATELET COUNT: tissue Blood; for ALANINE AMINOTRANSFERASE / ALBUMIN / ALKALINE PHOSPHATASE / ASPARTATE AMINOTRANSFERASE / BLOOD UREA NITROGEN / CARBON DIOXIDE / CHLORIDE / CHOLESTEROL / CREATINE PHOSPHOKINASE / CREATININE / GLUCOSE / LACTATE DEHYDROGENASE / LIPASE / PHOSPHORUS / POTASSIUM / SODIUM / TOTAL BILIRUBIN / TOTAL PROTEIN / URIC ACID: tissue Plasma
[1] = 5 mg/kg, 120 h, dose level Low, time 5 day
[2] = 15 mg/kg, 72 h, dose level High, time 3 day
[3] = 15 mg/kg, 120 h, dose level High, time 5 day

## C[N+](C)(C)CCOC(N)=O.[Cl-] [CARBACHOL]
[1]
  ABSOLUTE BASOPHIL: 0 CELLS/uL
  ABSOLUTE EOSINOPHIL: 0 CELLS/uL
  ABSOLUTE LYMPHOCYTE: 11606.67 CELLS/uL
  ABSOLUTE MONOCYTE: 117 CELLS/uL
  ABSOLUTE SEGMENTED NEUTROPHIL: 1076.33 CELLS/uL
  BASOPHIL: 0%
  EOSINOPHIL: 0%
  ERYTHROCYTE COUNT: 5.68 x10E6/uL
  HEMATOCRIT: 35.2%
  HEMOGLOBIN: 13.47 G/DL
  LEUKOCYTE COUNT: 12.8 x10E3/uL
  LYMPHOCYTE: 90.33%
  MEAN CORPUSCULAR HEMOGLOBIN: 23.7 pg
  MEAN CORPUSCULAR HEMOGLOBIN CONCENTRATION: 38.27 G/DL
  MEAN CORPUSCULAR VOLUME: 62 fL
  MONOCYTE: 1%
  NEUTROPHIL: 8.67%
  NUCLEATED RED BLOOD CELLS: 0 /100WBC
  PLATELET COUNT: 1163.67 x10E3/uL
  ALANINE AMINOTRANSFERASE: 62.33 u/L
  ALBUMIN: 3.97 G/DL
  ALKALINE PHOSPHATASE: 368 u/L
  ASPARTATE AMINOTRANSFERASE: 96.33 u/L
  BLOOD UREA NITROGEN: 14.67 mg/dL
  CARBON DIOXIDE: 33.33 mmol/L
  CHLORIDE: 99.33 MEQ/L
  CHOLESTEROL: 68.33 mg/dL
  CREATINE PHOSPHOKINASE: 498.67 u/L
  CREATININE: 0.15 mg/dL
  GLUCOSE: 136.67 mg/dL
  LACTATE DEHYDROGENASE: 139.33 u/L
  LIPASE: 8.67 u/L
  PHOSPHORUS: 10.83 mg/dL
  POTASSIUM: 5.88 MEQ/L
  SODIUM: 143.33 MEQ/L
  TOTAL BILIRUBIN: 0.2 mg/dL
  TOTAL PROTEIN: 5.77 G/DL
  URIC ACID: 0.63 mg/dL
[2]
  ABSOLUTE BASOPHIL: 0 CELLS/uL
  ABSOLUTE EOSINOPHIL: 0 CELLS/uL
  ABSOLUTE LYMPHOCYTE: 9349.33 CELLS/uL
  ABSOLUTE MONOCYTE: 72.33 CELLS/uL
  ABSOLUTE SEGMENTED NEUTROPHIL: 311.67 CELLS/uL
  BASOPHIL: 0%
  EOSINOPHIL: 0%
  ERYTHROCYTE COUNT: 5.27 x10E6/uL
  HEMATOCRIT: 33.67%
  HEMOGLOBIN: 12.87 G/DL
  LEUKOCYTE COUNT: 9.73 x10E3/uL
  LYMPHOCYTE: 95.67%
  MEAN CORPUSCULAR HEMOGLOBIN: 24.4 pg
  MEAN CORPUSCULAR HEMOGLOBIN CONCENTRATION: 38.23 G/DL
  MEAN CORPUSCULAR VOLUME: 63.83 fL
  MONOCYTE: 0.67%
  NEUTROPHIL: 3.67%
  NUCLEATED RED BLOOD CELLS: 0 /100WBC
  PLATELET COUNT: 1174 x10E3/uL
  ALANINE AMINOTRANSFERASE: 42.33 u/L
  ALBUMIN: 3.9 G/DL
  ALKALINE PHOSPHATASE: 336.33 u/L
  ASPARTATE AMINOTRANSFERASE: 77 u/L
  BLOOD UREA NITROGEN: 11.33 mg/dL
  CARBON DIOXIDE: 34 mmol/L
  CHLORIDE: 101 MEQ/L
  CHOLESTEROL: 72 mg/dL
  CREATINE PHOSPHOKINASE: 402.67 u/L
  CREATININE: 0.11 mg/dL
  GLUCOSE: 134.67 mg/dL
  LACTATE DEHYDROGENASE: 129.33 u/L
  LIPASE: 9 u/L
  PHOSPHORUS: 11.9 mg/dL
  POTASSIUM: 5.89 MEQ/L
  SODIUM: 146.47 MEQ/L
  TOTAL BILIRUBIN: 0.13 mg/dL
  TOTAL PROTEIN: 5.67 G/DL
  URIC ACID: 0.5 mg/dL
[3]
  ABSOLUTE BASOPHIL: 0 CELLS/uL
  ABSOLUTE EOSINOPHIL: 48 CELLS/uL
  ABSOLUTE LYMPHOCYTE: 6680.67 CELLS/uL
  ABSOLUTE MONOCYTE: 148.67 CELLS/uL
  ABSOLUTE SEGMENTED NEUTROPHIL: 722.67 CELLS/uL
  BASOPHIL: 0%
  EOSINOPHIL: 0.67%
  ERYTHROCYTE COUNT: 5.28 x10E6/uL
  HEMATOCRIT: 33.7%
  HEMOGLOBIN: 13.03 G/DL
  LEUKOCYTE COUNT: 7.6 x10E3/uL
  LYMPHOCYTE: 87.67%
  MEAN CORPUSCULAR HEMOGLOBIN: 24.73 pg
  MEAN CORPUSCULAR HEMOGLOBIN CONCENTRATION: 38.7 G/DL
  MEAN CORPUSCULAR VOLUME: 63.97 fL
  MONOCYTE: 2%
  NEUTROPHIL: 9.67%
  NUCLEATED RED BLOOD CELLS: 0 /100WBC
  PLATELET COUNT: 1083.67 x10E3/uL
  ALANINE AMINOTRANSFERASE: 53 u/L
  ALBUMIN: 3.73 G/DL
  ALKALINE PHOSPHATASE: 301 u/L
  ASPARTATE AMINOTRANSFERASE: 93 u/L
  BLOOD UREA NITROGEN: 15.67 mg/dL
  CARBON DIOXIDE: 30.67 mmol/L
  CHLORIDE: 101.67 MEQ/L
  CHOLESTEROL: 64 mg/dL
  CREATINE PHOSPHOKINASE: 243.33 u/L
  CREATININE: 0.18 mg/dL
  GLUCOSE: 145.67 mg/dL
  LACTATE DEHYDROGENASE: 116.33 u/L
  LIPASE: 11 u/L
  PHOSPHORUS: 10.67 mg/dL
  POTASSIUM: 5.44 MEQ/L
  SODIUM: 146.13 MEQ/L
  TOTAL BILIRUBIN: 0.1 mg/dL
  TOTAL PROTEIN: 5.47 G/DL
  URIC ACID: 0.57 mg/dL

From ChEMBL document CHEMBL3885881, “DrugMatrix”
